The target of experiment [1] is T1, CB1 (Rattus norvegicus, UniProt P20272). Briefly: CB1 receptor binding affinity (Ki). The method, then:
Some disclosed compounds were tested for CB1 and CB2 receptor binding affinity (Tables 1, 2, 3, 4, 5, 6). As used herein “binding affinity” is represented by the Ki value. The Ki value is the affinity constant and describes the affinity of the compound for the receptor. […] A detailed description of the methods used to test “binding affinity” of compounds is given in Makriyannis, et al., US 2007, 0135388 and in Papahatjis, et al. J. Med. Chem. (2007) 4048, the content of each of which is hereby incorporated by reference.

A further experiment deals with CB2 receptor (UniProt P47936). Kind of experiment: CB2 receptor binding affinity (Ki). The note with it: read-out: CB2 receptor Ki. The method, then: Some disclosed compounds were tested for CB1 and CB2 receptor binding affinity (Tables 1, 2, 3, 4, 5, 6). As used herein “binding affinity” is represented by the Ki value. The Ki value is the affinity constant and describes the affinity of the compound for the receptor. The lower the Ki value, the higher the affinity of the compound for the receptor. A detailed description of the methods used to test “binding affinity” of compounds is given in Makriyannis, et al., US 2007, 0135388 and in Papahatjis, et al. J. Med. Chem. (2007) 4048, the content of each of which is hereby incorporated by reference.

Experiment [2] deals with T1, CB1. Briefly: cyclic adenosine monophosphate (cAMP) assay at CB1. It counts as cell-based. As to conditions: for EC50: read-out: Functional Potency (EC50); for Emax: read-out: % Efficacy. As for the experimental part: (§1) Functional characterization of some of the disclosed compounds was performed by using the cyclic adenosine monophosphate (cAMP) assay. The functional potency of the compound is represented by the EC50 value. The lower the EC50 value, the higher the functional potency. A detailed description of the cyclic adenosine monophosphate (cAMP) assay is given in Nikas et al. J. Med. Chem. (2010) 6996.

The next experiment addresses CB2 (Homo sapiens, UniProt P34972). Briefly: cyclic adenosine monophosphate (cAMP) assay at CB2. The note with it: for EC50: read-out: Functional Potency (EC50); for Emax: read-out: % Efficacy. It counts as cell-based. As for the experimental part:
as §1

Another experiment concerns C57BL6/J mice. Kind of experiment: Analgesia assay (tail immersion / tail withdrawal test). It counts as in vivo. The method, then:
(§2) Some of the disclosed compounds were tested in vivo using two well defined rodent assays for cannabinergic activity, the analgesia and the hypothermia assays. The analgesia assay (tail immersion test) determines the ability of the test compound to activate cannabinergic signaling, through modulation of cannabinoid receptors, and thereby reduce nociceptive pain. The hypothermia test determines the ability of a test compound to act as a central CB1 agonist and decrease the body temperature. […] The details of both assays are described below.
C57BL6/J mice (Jackson Laboratories, Bar Harbor Me.) were single housed at least 1 h before start of experiment. Food and water are removed immediately before the first injection.
Route of administration=i.p. Volume=1 mL/100 g body weight.
Tail withdrawal test: 52° C. water bath (use bags). • a. Bag is made of stapled surgery sheets to form a small pocket the size of a mouse. • b. […] The tip of the mouse's tail is dipped into the warm water, with 1 cm submerged. • d. […] B. Hypothermia Assay

For the next experiment, the system named is C57BL/6 J mice. Briefly: Hypothermia assay (rectal temperature). As to conditions: dose of 3 mg/kg, FIG. 2. It counts as in vivo. As for the experimental part: as §2
C57BL/6 J mice (Charles River Breeding Laboratories, Wilmington, Mass., USA) weighing 30 to 35 g were group housed five to a cage, in a temperature-controlled (20° C.) animal facility. Mice were habituated to the animal facility for at least 1 week prior to experiments with a 12-h light/dark cycle (lights are on at 7:00 AM). Mice were given free access to food and water. Experimentally naïve mice were used for each dose condition, and the mice were tested during the light phase.
Rectal temperature was measured in mice using a rectal probe of a digital laboratory thermometer, RET-3-ISO, type T thermocouple (Physitemp Instruments Inc, Clifton, N.J.). The lubricated probe was inserted approximately 2.0 cm into the rectum for approximately 30 sec, prior to each recording. […]

Where two headings read alike, the source gives them in different places.

Sequence of CB2 (P34972 whole entry, species assumed): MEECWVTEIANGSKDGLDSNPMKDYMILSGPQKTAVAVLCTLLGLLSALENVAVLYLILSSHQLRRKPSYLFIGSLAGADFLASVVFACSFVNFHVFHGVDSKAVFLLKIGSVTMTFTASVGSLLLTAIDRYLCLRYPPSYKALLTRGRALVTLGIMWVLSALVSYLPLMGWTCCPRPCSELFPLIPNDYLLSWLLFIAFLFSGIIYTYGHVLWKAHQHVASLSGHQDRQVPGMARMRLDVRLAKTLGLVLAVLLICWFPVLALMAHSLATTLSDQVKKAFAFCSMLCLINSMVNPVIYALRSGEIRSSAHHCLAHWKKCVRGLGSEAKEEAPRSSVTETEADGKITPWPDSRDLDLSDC
T1 sequence (P20272 whole entry): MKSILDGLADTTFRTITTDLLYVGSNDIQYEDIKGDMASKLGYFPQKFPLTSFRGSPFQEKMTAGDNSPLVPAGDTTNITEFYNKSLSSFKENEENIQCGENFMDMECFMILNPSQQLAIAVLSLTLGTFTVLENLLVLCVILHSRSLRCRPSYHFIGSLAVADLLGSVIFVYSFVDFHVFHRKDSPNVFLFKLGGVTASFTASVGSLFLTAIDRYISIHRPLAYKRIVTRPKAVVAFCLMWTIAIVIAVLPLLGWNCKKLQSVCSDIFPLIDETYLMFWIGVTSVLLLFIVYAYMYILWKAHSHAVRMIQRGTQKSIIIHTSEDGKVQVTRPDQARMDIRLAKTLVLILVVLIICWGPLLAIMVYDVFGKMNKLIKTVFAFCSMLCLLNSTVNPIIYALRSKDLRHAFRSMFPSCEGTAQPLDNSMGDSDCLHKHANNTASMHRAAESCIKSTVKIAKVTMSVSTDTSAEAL

The Ki is the dissociation constant of the complex between target and ligand, obtained from inhibition or displacement. What is called EC50 is the concentration needed to bring the measured effect to its halfway point. Take “2-[(1S,6S)-3-(Hydroxymethyl)-6-(1-methylethenyl)-2-cyclohexen-1-yl]-5-(6-morpholino-2-methylhexane-2-yl)-1,3-dimethoxy-benzene [Compound 74]”: at CB1 [1] (read-out: CB1 receptor Ki), the Ki was determined as 70 nM. Moreover, at CB2 receptor, the Ki was found to be 16 nM. Besides, at CB1 [2], the “% Efficacy” value is 51%, the “Functional Activity” value is “Agonist at CB1” and the concentration giving a half-maximal response (EC50) was 50.4 nM. Moreover, at CB2, the “% Efficacy” value is reported as 28%, the “Functional Activity” value is reported as “Partial agonist at CB2” and the EC50 stood at 6.7 nM.

For `C=C(C)[C@H]1CCC(CO)=C[C@@H]1c1c(O)cc(C2(CCCCCC)CC2)cc1O` [Compound 4.3, 2-[(1S,6S)-3-(Hydroxymethyl)-6-(1-methylethenyl)-2-cyclohexen-1-yl]-5-(1-hexyl-cyclopropyl)resorcinol], the Ki on CB1 [1] is 16 nM; at CB2 receptor it was 14 nM. The “Functional Activity” value on CB1 [2] is reported as “Agonist at CB1”; at CB2, “Partial agonist at CB2”. For the same molecule, the Emax at CB1 [2] worked out at 58%; on CB2, 35%. In addition, the EC50 was determined as 1.6 nM at CB1 [2] and 12 nM on CB2.

As for `C=C(C)[C@H]1CCC(CO)=C[C@@H]1c1c(O)cc(C2(CCCCCC)CCCC2)cc1O` [Compound 4.4, 2-[(1S,6S)-3-(Hydroxymethyl)-6-(1-methylethenyl)-2-cyclohexen-1-yl]-5-(1-hexyl-cyclopentyl)resorcinol], the Ki on CB1 [1] was 78 nM. Moreover, the inhibitory constant (Ki) on CB2 receptor is 16 nM. Besides, at CB1 [2], the “Functional Activity” value was “Agonist at CB1”, the Emax came out at 81% and the EC50 amounted to 17 nM.

Molecule `C=C(C)[C@H]1CCC(CO)=C[C@@H]1c1c(O)cc(C2(CCCCCC)SCCS2)cc1O` [Compound 4.6, 2-[(1S,6S)-3-(Hydroxymethyl)-6-(1-methylethenyl)-2-cyclohexen-1-yl]-5-(2-hexyl-1,3-dithiolane-2-yl)resorcinol] yielded a Ki at CB1 [1] of 71 nM. The Ki on CB2 receptor came to 28 nM. For the same molecule, at CB1 [2], the “Functional Activity” value is on record as “Agonist at CB1”, the Emax stood at 84% and the EC50 amounted to 267 nM.

`C=C(C)[C@H]1CCC(CO)=C[C@@H]1c1c(O)cc(C2(CCCCCC#N)CCC2)cc1O` [Compound 34, 2-[(1S,6S)-3-(Hydroxymethyl)-6-(1-methylethenyl)-2-cyclohexen-1-yl]-5-[(5-cyanopentyl)cyclobutyl]resorcinol] returned a Ki on CB1 [1] of 20 nM. Also, the Ki at CB2 receptor was 5.5 nM. At CB1 [2], the “Functional Activity” value is listed as “Agonist at CB1”, the Emax stood at 83% and the EC50 was 3.2 nM.

At CB1 [1], `CCCCCCC1(c2cc(O)c([C@H]3C=C(C)[C@H]4C[C@@H]3C4(C)C)c(O)c2)SCCS1` [Compound 40.6, (+)-2-[(1R,4S,5S)-2,6,6-trimethylbicylco[3.1.1]hept-2-en-4-yl]-5-(2-hexyl-1,3-dithiolane-2-yl)resorcinol] came in with a Ki of 19.2 nM. Further, at CB2 receptor, the Ki was 7.9 nM. Also, at CB1 [2], the “Functional Activity” value is on record as “Partial agonist at CB1”, the Emax came to 38% and the half-maximal effective concentration (EC50) was 21 nM. For the same molecule, at CB2, the “Functional Activity” value was “Partial agonist at CB2”, the Emax was 38% and the EC50 was 8.7 nM.

Take `CC1=C[C@H](c2c(O)cc(C3(CCCCCC#N)CCCC3)cc2O)[C@@H]2C[C@H]1C2(C)C` [Compound 41, (+)-2-[(1R,4S,5S)-2,6,6-trimethylbicylco[3.1.1]hept-2-en-4-yl]-5-[(5-cyanopentyl)cyclopentyl]resorcinol]: the inhibition constant Ki at CB1 [1] was determined as 2.6 nM; at CB2 receptor, 0.8 nM. Further, the “antinociception (analgesia)” value with C57BL6/J mice (dose of 3 mg/Kg, FIG. 1) is recorded as “maximum possible effect”.

Turning to `C=C(C)[C@@H]1CCC(=O)C[C@H]1c1c(O)cc(C(C)(C)CCCCCC)cc1O` [Compound 61.2, (3R,4R)-3-[4-(1′,1′-Dimethylheptyl)-2,6-dihydroxyphenyl]-4-isopropenylcyclohexan-1-one], the Ki was more than 1000 nM at CB1 [1] and 37 nM at CB2 receptor.

As to `C=C(C)[C@@H]1CC[C@@H](N2CCOCC2)C[C@H]1c1c(O)cc(C(C)(C)CCCCCC)cc1O` [Compound 62, (1R,3R,4R)-3-[4-(1′,1′-Dimethylheptyl)-2,6-dihydroxyphenyl]-4-isopropenyl-1-morpholinylcyclohexane], the inhibition constant Ki at CB1 [1] amounted to 69 nM; on CB2 receptor it was 14 nM.

Turning to `C=C(C)[C@H]1CCC(=O)C[C@@H]1c1c(O)cc(C(C)(C)CCCCCC)cc1O` [Compound 66.2, (3S,4S)-3-[4-(1′,1′-Dimethylheptyl)-2,6-dihydroxyphenyl]-4-isopropenylcyclohexan-1-one], the Ki at CB1 [1] is 30 to 60 nM; on CB2 receptor it was 41 nM.

For the molecule `C=C(C)C1CCC(O)CC1c1c(O)cc(C(C)(C)CCCCCC)cc1O` [Compound 68, (1R,3R,4R)-3-[4-(1′,1′-Dimethylheptyl)-2,6-dihydroxyphenyl]-4-isopropenyl-1-hydroxycyclohexane], the Ki at CB1 [1] was more than 1000 nM; on CB2 receptor, 33 nM.

`C=C(C)[C@H]1CCC(CO)=C[C@@H]1c1c(O)cc(C(C)(C)CCCCN2CCOCC2)cc1O` [Compound 71, 2-[(1S,6S)-3-(Hydroxymethyl)-6-(1-methylethenyl)-2-cyclohexen-1-yl]-5-(6-morpholino-2-methylhexane-2-yl)resorcinol] yielded a Ki on CB1 [1] of 6 nM. Further, the Ki at CB2 receptor came out at 3 nM. Further, at CB1 [2], the “Functional Activity” value is “Agonist at CB1”, the Emax came to 88% and the half-maximal effective concentration (EC50) was 1.4 nM. Also, at CB2, the “Functional Activity” value is “Partial agonist at CB2”, the Emax turned out to be 42% and the concentration for a half-maximal effect (EC50) is 0.4 nM. For the same molecule, in the experiment on C57BL/6 J mice, the centrally mediated hypothermia entry is “does not show significant hypothermia”.

“(−)-Δ^9-tetrahydrocannabinol [(−)-Δ^9-THC, reference compound]”: the “potency in the analgesia assay relative to compound 41 (times less potent)” value with C57BL6/J mice (same test as compound 41) was “approximately 10 times”.

These data come from patent US9517989B2, “2-cycloalkyl resorcinol cannabinergic ligands” (priority 2012, dated 2016).
